Laboratory results from ChEMBL document CHEMBL5236615, “Discovery of Novel N-Heterocyclic-Fused Deoxypodophyllotoxin Analogues as Tubulin Polymerization Inhibitors Targeting the Colchicine-Binding Site for Cancer Treatment” (J Med Chem, 2022).
Calls of active or inactive are those of the source. No cut-off for these calls is given here.

Tests used:
[1] = Toxicity in Balb/c mouse xenografted with human MCF7 cells assessed as pathological changes in spleen at 5 to 20 mg/kg, ip administered for every 2 days for 21 days by hematoxylin and eosin staining based analysis; type: organism-based; conditions: in vivo, 504 h, dose 5-20 mg/kg, time 21 day
[2] = Toxicity in Balb/c mouse xenografted with human MCF7 cells assessed as pathological changes in heart at 5 to 20 mg/kg, ip administered for every 2 days for 21 days by hematoxylin and eosin staining based analysis; type: organism-based; conditions: in vivo, 504 h, dose 5-20 mg/kg, time 21 day
MCF7 [3] = assay: Antiproliferative activity against human MCF7 cells assessed as survival rate at 20 nM in presence of roscovitine measured after 72 hrs by MTT assay relative to control; type: functional
[4] = biological target: Tubulin beta (Homo sapiens) (UniProt P68371+Q9H4B7+Q13509+P04350+Q3ZCM7+P07437+Q13885+Q9BVA1+Q9BUF5+A6NNZ2); assay: Binding affinity to beta-tubulin colchicine binding site in human MCF-7 cells assessed as inhibition of EBI-beta-tubulin adduct band formation preincubated for 2 hrs followed by EBI addition and measured after 1.5 hrs by EBI competition based Western blotting analysis; type: cell-based; conditions: MCF7, dose 0.2-25 µM, time 3.5 hrs
[5] = Cardiotoxicity in Sprague-Dawley rat assessed as QTcf value at 10 to 60 mg/kg, iv measured upto 60 mins by electrocardiography; type: toxicity, organism-based; conditions: in vivo, 1 h, dose 10-60 mg/kg
MCF7 [6] = assay: Induction of cell cycle arrest in human MCF7 cells assessed as upregulation of Bcl2 phosphorylation at […] at 5 to 20 nM in presence of roscovitine measured after 24 hrs by Western blot analysis; type: functional, cell-based; conditions: dose 5-20 nM
MCF7 [7] = assay: Antitumor activity against human MCF7 cells xenografted in Balb/c mouse assessed as tumor growth inhibition at 5 mg/kg, ip administered for every 2 days for 21 days; type: functional; conditions: MCF7, 504 h, time 21 day, read-out: TGI
[8] = Toxicity in Balb/c mouse assessed as pathological changes in blood alanine aminotransferase level at 20 mg/kg, ip administered for every 2 days for 14 days; type: organism-based; conditions: in vivo, 336 h, time 14 day
[9] = AUC (0 to t) in Sprague-Dawley rat at 10 mg/kg, iv measured upto 8 hrs by LC/MS/MS analysis; type: ADME, organism-based; set-up: dose 10 mg/kg, time < 8 hrs, route iv; conditions: in vivo
[10] = Cardiotoxicity in Sprague-Dawley rat assessed as RR interval at 10 to 60 mg/kg, iv measured upto 60 mins by electrocardiography; type: toxicity, organism-based; conditions: in vivo, 1 h, dose 10-60 mg/kg
MCF7 [11] = assay: Induction of cell cycle arrest in human MCF7 cells assessed as CI-PARP at 5 to 20 nM in presence of roscovitine measured after 24 hrs by Western blot analysis; type: functional, cell-based; conditions: dose 5-20 nM
[12] = Cardiotoxicity in Sprague-Dawley rat assessed as QT correction value at 10 to 60 mg/kg, iv measured upto 60 mins by electrocardiography; type: toxicity, organism-based; conditions: in vivo, 1 h, dose 10-60 mg/kg
MCF7 [13] = assay: cells; conditions: Homo sapiens, MCF7, 72 h
Description: Antiproliferative activity against human MCF7 cells measured after 72 hrs by MTT assay

MCF7 [14] = assay: Antitumor activity against human MCF7 cells xenografted in Balb/c mouse assessed as decrease in Ki67-positive tumor cells in tumor at 20 mg/kg, ip administered for every 2 days for 21 days; type: functional, organism-based; conditions: time 2.0 day
[15] = Volume of distribution at steady sate in Sprague-Dawley rat at 10 mg/kg, iv measured upto 8 hrs by LC/MS/MS analysis; type: ADME, organism-based; conditions: in vivo, read-out: Vdss
[16] = MRT (0 to t) in Sprague-Dawley rat at 10 mg/kg, iv measured upto 8 hrs by LC/MS/MS analysis; type: ADME, organism-based; conditions: in vivo
[17] = Toxicity in Balb/c mouse assessed as pathological changes in blood creatinine level at 20 mg/kg, ip administered for every 2 days for 14 days; type: organism-based; conditions: in vivo, 336 h, time 14 day
[18] = Tmax in Sprague-Dawley rat at 10 mg/kg, iv measured upto 8 hrs by LC/MS/MS analysis; type: ADME, organism-based; conditions: in vivo
MCF7 [19] = assay: Induction of apoptosis in human MCF7 cells assessed as upregulation of p-Bim EL protein expression at 5 to 20 nM measured after 24 hrs by Western blot analysis; type: functional, cell-based; conditions: dose 5-20 nM
MCF7 [20] = assay: Induction of cell cycle arrest in human MCF7 cells assessed as acetyl-alpha tubulin at 20 nM in presence of roscovitine measured after 24 hrs by Western blot analysis; type: functional, cell-based
[21] = Cardiotoxicity in Sprague-Dawley rat assessed as PR interval at 10 to 60 mg/kg, iv measured upto 60 mins by electrocardiography; type: toxicity, organism-based; conditions: in vivo, 1 h, dose 10-60 mg/kg
[22] = Antitumor activity against paclitaxel-resistant human MCF7/TxR cells xenografted in Balb/c mouse assessed as tumor growth inhibition at 5 mg/kg, ip administered for every 2 days for 21 days; type: functional; conditions: read-out: TGI
[23] = Antiproliferative activity against paclitaxel-resistant human MCF7/TxR cells measured after 72 hrs by MTT assay; type: functional, cell-based
[24] = Half life in Sprague-Dawley rat at 10 mg/kg, iv measured upto 8 hrs by LC/MS/MS analysis; type: ADME, organism-based; conditions: in vivo
[25] = Antitumor activity against paclitaxel-resistant human MCF7/TxR cells xenografted in Balb/c mouse assessed as tumor growth inhibition at 10 mg/kg, ip administered for every 2 days for 21 days; type: functional; conditions: 504 h, time 21 day, read-out: TGI
[26] = Toxicity in Balb/c mouse assessed as pathological changes in blood creatine kinase level at 20 mg/kg, ip administered for every 2 days for 14 days; type: organism-based; conditions: in vivo, 336 h, time 14 day
[27] = Toxicity in Balb/c mouse assessed as pathological changes in blood lactic dehydrogenase level at 20 mg/kg, ip administered for every 2 days for 14 days; type: organism-based; conditions: in vivo, 336 h, time 14 day
MCF7 [28] = assay: Induction of apoptosis in human MCF7 cells incubated for 24 hrs by annexinV/PI assay; type: functional, cell-based; conditions: dose 5-25 nM
[29] = Antitumor activity against paclitaxel-resistant human MCF7/TxR cells xenografted in Balb/c mouse assessed as tumor growth inhibition at 20 mg/kg, ip administered for every 2 days for 21 days; type: functional; conditions: 504 h, time 21 day, read-out: TGI
MCF7 [30] = assay: Antiproliferative activity against human MCF7 cells assessed as survival rate at 20 nM measured after 72 hrs by MTT assay relative to control; type: functional
MCF7 [31] = assay: Induction of apoptosis in human MCF7 cells assessed as upregulation of p-Bim L protein expression at 5 to 20 nM in presence of roscovitine measured after 24 hrs by Western blot analysis; type: functional, cell-based; conditions: dose 5-20 nM
[32] = Toxicity in Balb/c mouse assessed as pathological changes in blood urea nitrogen level at 20 mg/kg, ip administered for every 2 days for 14 days; type: organism-based; conditions: in vivo, 336 h, time 14 day
MCF7 [33] = assay: Antitumor activity against human MCF7 cells xenografted in Balb/c mouse assessed as decrease in CD31-positive tumor cells in tumor at 20 mg/kg, ip administered for every 2 days for 21 days; type: functional, organism-based; conditions: time 2.0 day
Tubulin = Tubulin (Sus scrofa, UniProt P02554+P02550); assay: Binding affinity to porcine brain tubulin assessed as changes in the fluorescence incubated for 10 mins tryptophan-based binding assay
[34] = Cardiotoxicity in Sprague-Dawley rat assessed as Qt interval at 10 to 60 mg/kg, iv measured upto 60 mins by electrocardiography; type: toxicity, organism-based; conditions: in vivo, 1 h, dose 10-60 mg/kg
[35] = Toxicity in Balb/c mouse xenografted with human MCF7 cells assessed as pathological changes in liver at 5 to 20 mg/kg, ip administered for every 2 days for 21 days by hematoxylin and eosin staining based analysis; type: organism-based; conditions: in vivo, 504 h, dose 5-20 mg/kg, time 21 day

In the case of `COc1c(Cl)cc([C@@H]2c3cc4c(cc3C[C@H]3C(=O)NC(=O)N23)OCCO4)cc1Cl`, the Activity [1] is reported as “Non-Toxic”, the Activity [2] is reported as “Non-Toxic” and the Activity (MCF7 [3]) is reported as 60.71%. The Activity [4] was “Dose-Dependent Effect”, the Activity [5] was “Non-Toxic” and the Activity (MCF7 [6]) was “inactive”. The inhibition in vivo at 5 mg/kg (MCF7 [7]) was 41%, the Activity [8] was “Non-Toxic” and the AUCt [9] was 6530 ng·h/mL. The Activity [10] was “Non-Toxic”, the Activity (MCF7 [11]) was “inactive” and the Activity [12] was “Non-Toxic”. For the same compound, the IC50 (MCF7 [13]) was 9.2 nM, the Activity (MCF7 [14]) was “Active” and the Vd [15] was 6.99 L/kg. For the same compound, the MRT last at 8 h [16] was 1.79 h, the Activity [17] was “Non-Toxic” and the Tmax [18] was 6.6 min. For the same compound, the Activity (MCF7 [19]) was “Active”, the Activity (MCF7 [20]) was “Active” and the Activity [21] was “Non-Toxic”. The inhibition in vivo at 5 mg/kg [22] was 38.9%, the IC50 [23] was 7.8 nM and the t1/2 [24] was 1.59 h. The inhibition in vivo at 10 mg/kg [25] was 49.2%, the Activity [26] was “Non-Toxic” and the Activity [27] was “Non-Toxic”. For the same compound, the Activity (MCF7 [28]) was “Dose-Dependent Effect”, the inhibition in vivo at 20 mg/kg [29] was 67.7% and the Activity (MCF7 [30]) was 31.55%. For the same compound, the Activity (MCF7 [31]) was “inactive”, the Activity [32] was “Non-Toxic” and the Activity (MCF7 [33]) was “Active”. The Kd (Tubulin) was 4490 nM, the Activity [34] was “Non-Toxic” and the Activity [35] was “Non-Toxic”.
With `COc1c(Br)cc([C@@H]2c3cc4c(cc3C[C@H]3C(=O)NC(=O)N23)OCCO4)cc1Br` the Activity [1] was “Non-Toxic”, the Activity [2] was “Non-Toxic” and the inhibition in vivo at 5 mg/kg (MCF7 [7]) was 20.8%. The IC50 (MCF7 [13]) was 3.5 nM, the Activity (MCF7 [14]) was “Active” and the Activity (MCF7 [19]) was “Active”. The IC50 [23] was 5.2 nM, the Activity (MCF7 [28]) was “Dose-Dependent Effect” and the Activity (MCF7 [33]) was “Active”. The Kd (Tubulin) was 1700 nM and the Activity [35] was “Non-Toxic”.
